“And” between values parts separate entries of the source, which are not always exact repeats. Equal entries are not always repeated. Inconclusive results and toxic doses are left out.
System: P388 leukemia ip, CD2F1 mice, survival T/C
Assay: NCI In Vivo Anticancer Drug Screen. Data for tumor model P388 Leukemia (intraperitoneal) in CD2F1 (CDF1) mice
Settings: endpoint: median survival time, higher = longer survival
Procedure, shortened: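 Mice carrying the transplanted tumor received test compound or vehicle. Survival was recorded in each group, and the value is the treated-group measurement divided by that of the vehicle-treated control group.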

[1] = dose: 12.5 mg/kg/injection, schedule: Q01DX001 (ip), vehicle: saline with Tween-80
[2] = dose: 25.0 mg/kg/injection, schedule: Q01DX001 (ip), vehicle: saline with Tween-80
[3] = dose: 12.5 mg/kg/injection, schedule: Q01DX009 (ip), vehicle: saline with Tween-80
[4] = dose: 25.0 mg/kg/injection, schedule: Q01DX009 (ip), vehicle: saline with Tween-80
[5] = dose: 50.0 mg/kg/injection, schedule: Q01DX009 (ip), vehicle: saline with Tween-80
[6] = dose: 100.0 mg/kg/injection, schedule: Q01DX009 (ip), vehicle: saline with Tween-80
[7] = dose: 12.5 mg/kg/injection, schedule: Q01DX009 (ip), vehicle: Klucel (hydroxypropylcellulose) (HPC)
[8] = dose: 25.0 mg/kg/injection, schedule: Q01DX009 (ip), vehicle: Klucel (hydroxypropylcellulose) (HPC)
[9] = dose: 50.0 mg/kg/injection, schedule: Q01DX009 (ip), vehicle: Klucel (hydroxypropylcellulose) (HPC)
[10] = dose: 100.0 mg/kg/injection, schedule: Q01DX009 (ip), vehicle: Klucel (hydroxypropylcellulose) (HPC)
[11] = dose: 60.0 mg/kg/injection, schedule: Q01DX005 (ip), vehicle: saline with Tween-80
[12] = dose: 120.0 mg/kg/injection, schedule: Q01DX005 (ip), vehicle: saline with Tween-80
[13] = dose: 240.0 mg/kg/injection, schedule: Q01DX005 (ip), vehicle: saline with Tween-80
[14] = dose: 50.0 mg/kg/injection, schedule: Q01DX005 (ip), vehicle: Klucel (hydroxypropylcellulose) (HPC)
[15] = dose: 100.0 mg/kg/injection, schedule: Q01DX005 (ip), vehicle: Klucel (hydroxypropylcellulose) (HPC)
[16] = dose: 200.0 mg/kg/injection, schedule: Q01DX005 (ip), vehicle: Klucel (hydroxypropylcellulose) (HPC)

`Cc1ccc2ccccc2c1N(CC(=O)O)S(=O)(=O)c1ccccc1` (tested in a mixture with another compound) was tested, and the T/C [1] was 110 % of control, the T/C [2] was 105 % of control and the T/C (dose: 50.0 mg/kg/injection, schedule: Q01DX001 (ip), vehicle: saline with Tween-80) was 110 % of control.
For `CC(=O)CC(=O)Nc1cc(Cl)c(NC(=O)CC(C)=O)cc1Cl`, the T/C (dose: 100.0 mg/kg/injection, schedule: Q04DX003 (ip), vehicle: saline with Tween-80) was 100 % of control, the T/C (dose: 200.0 mg/kg/injection, schedule: Q04DX003 (ip), vehicle: saline with Tween-80) was 104 % of control and the T/C (dose: 400.0 mg/kg/injection, schedule: Q04DX003 (ip), vehicle: saline with Tween-80) was 95 % of control.
With `COc1cc2c3cc1Oc1c(OC)c(OC)cc4c1[C@@H](Cc1ccc(O)c(c1)Oc1ccc(cc1)C[C@@H]3N(C)CC2)N(C)CC4` the T/C (dose: 60.0 mg/kg/injection, schedule: Q01DX005 (ip), vehicle: Klucel (hydroxypropylcellulose) (HPC)) was 102 % of control and 106 % of control and the T/C (dose: 120.0 mg/kg/injection, schedule: Q01DX005 (ip), vehicle: Klucel (hydroxypropylcellulose) (HPC)) was 118 % of control and 113 % of control.
With `COc1cc2c(cc1OC)-c1c3c(cc4c1[C@@H](C2)N(C)CC4)OCO3` the T/C (dose: 12.5 mg/kg/injection, schedule: Q01DX009 (ip), vehicle: distilled water + Tween-80) was 107 % of control, the T/C [3] was 106 % of control and the T/C (dose: 25.0 mg/kg/injection, schedule: Q01DX009 (ip), vehicle: distilled water + Tween-80) was 107 % of control. The T/C [4] was 100 % of control, the T/C (dose: 50.0 mg/kg/injection, schedule: Q01DX009 (ip), vehicle: distilled water + Tween-80) was 116 % of control and the T/C [5] was 102 % of control.
With `CSc1nc2ncnn2c(=O)[nH]1` the T/C [3] was 100 % of control, the T/C [4] was 99 % of control and the T/C (dose: 50.0 mg/kg/injection, schedule: Q01DX005 (ip), vehicle: saline with Tween-80) was 98 % of control. For the same molecule, the T/C [5] was 100 % of control, the T/C (dose: 100.0 mg/kg/injection, schedule: Q01DX005 (ip), vehicle: saline with Tween-80) was 105 % of control and the T/C [6] was 100 % of control. The T/C (dose: 200.0 mg/kg/injection, schedule: Q01DX005 (ip), vehicle: saline with Tween-80) was 103 % of control.
For `Clc1c(Cl)c(Cl)c(SC2C3CC4C(C3)C42)c(Cl)c1Cl` (stereo not drawn), the T/C (dose: 50.0 mg/kg/injection, schedule: Q01DX009 (ip), vehicle: saline) was 103 % of control, the T/C (dose: 100.0 mg/kg/injection, schedule: Q01DX009 (ip), vehicle: saline) was 108 % of control and the T/C (dose: 200.0 mg/kg/injection, schedule: Q01DX009 (ip), vehicle: saline) was 101 % of control.
In the case of `C/C=C/C#CC#C/C=C/C=C/CC`, the T/C [7] is reported as 104 % of control, the T/C [8] is reported as 98 % of control and the T/C [9] is reported as 103 % of control. For the same molecule, the T/C [10] was 98 % of control.
In the case of `N#CC1(C#N)C(c2ccccc2)C1(C#N)C#N`, the T/C (dose: 6.25 mg/kg/injection, schedule: Q04DX003 (ip), vehicle: saline sonified) is reported as 115 % of control, the T/C (dose: 12.5 mg/kg/injection, schedule: Q04DX003 (ip), vehicle: saline sonified) is reported as 110 % of control and the T/C (dose: 16.5 mg/kg/injection, schedule: Q04DX003 (ip), vehicle: saline with Tween-80) is reported as 108 % of control. For the same molecule, the T/C (dose: 25.0 mg/kg/injection, schedule: Q04DX003 (ip), vehicle: saline with Tween-80) was 112 % of control.
In the case of `CC(=O)Oc1ccc(CC(=O)O)cc1`, the T/C [4] is reported as 107 % of control, the T/C [5] is reported as 103 % of control and the T/C [6] is reported as 103 % of control. The T/C (dose: 200.0 mg/kg/injection, schedule: Q01DX009 (ip), vehicle: saline with Tween-80) was 107 % of control.
For `CCC1OC2(C)C(O)C(/C=C/C=C/C=C/c3oc(=O)cc(OC)c3C)OC1(C)C2OC(C)=O` (stereo not drawn), the T/C (dose: 0.5 mg/kg/injection, schedule: Q01DX009 (ip), vehicle: Klucel (hydroxypropylcellulose) (HPC)) was 109 % of control, the T/C (dose: 1.0 mg/kg/injection, schedule: Q01DX009 (ip), vehicle: Klucel (hydroxypropylcellulose) (HPC)) was 105 % of control and the T/C (dose: 2.0 mg/kg/injection, schedule: Q01DX009 (ip), vehicle: Klucel (hydroxypropylcellulose) (HPC)) was 100 % of control.
For `O=C(N/N=C/c1ccco1)c1cccnc1`, the T/C [11] was 92 % of control, the T/C [12] was 92 % of control and the T/C [13] was 101 % of control.
`Cc1cccc(Nc2ncnc3nc[nH]c23)c1` was tested, and the T/C [14] was 100 % of control, the T/C [15] was 91 % of control and the T/C [16] was 94 % of control.
In the case of `COc1cc(OC)c2ccc(=O)oc2c1/C=C\C1(C)CCC(C)=CC1c1c(OC)cc(OC)c2ccc(=O)oc12` (stereo not drawn), the T/C (dose: 2.5 mg/kg/injection, schedule: Q01DX005 (ip), vehicle: Klucel (hydroxypropylcellulose) (HPC)) is reported as 96 % of control, the T/C (dose: 5.0 mg/kg/injection, schedule: Q01DX005 (ip), vehicle: Klucel (hydroxypropylcellulose) (HPC)) is reported as 105 % of control and the T/C (dose: 10.0 mg/kg/injection, schedule: Q01DX005 (ip), vehicle: Klucel (hydroxypropylcellulose) (HPC)) is reported as 117 % of control. The T/C (dose: 20.0 mg/kg/injection, schedule: Q01DX005 (ip), vehicle: Klucel (hydroxypropylcellulose) (HPC)) was 96 % of control and the T/C (dose: 40.0 mg/kg/injection, schedule: Q01DX005 (ip), vehicle: Klucel (hydroxypropylcellulose) (HPC)) was 86 % of control.
`Fc1ccc2nc3ccccc3c(SCCNCCSc3c4ccccc4nc4ccc(F)cc34)c2c1` was tested, and the T/C [11] was 97 % of control and the T/C [12] was 89 % of control.
For `COc1cc(OC)c(-c2cc3ccc(OCc4ccccc4)cc3oc2=O)cc1OC`, the T/C (dose: 100.0 mg/kg/injection, schedule: Q01DX001 (ip), vehicle: Klucel (hydroxypropylcellulose) (HPC)) was 102 % of control, the T/C (dose: 200.0 mg/kg/injection, schedule: Q01DX001 (ip), vehicle: Klucel (hydroxypropylcellulose) (HPC)) was 105 % of control and the T/C (dose: 400.0 mg/kg/injection, schedule: Q01DX001 (ip), vehicle: Klucel (hydroxypropylcellulose) (HPC)) was 94 % of control.
`CCC12C=CCN3CC[C@@]4(c5cc([C@@]6(C(=O)OC)C[C@@H]7CN(CCc8c6[nH]c6ccccc86)C[C@](O)(CC)C7)c(OC)cc5N(C)[C@H]4[C@@](O)(C(=O)OC)[C@@H]1OC(=O)CCCCCCCCCCCN1C(=O)C=CC1=O)[C@H]32` (stereo partly drawn) was tested, and the T/C (dose: 6.25 mg/kg/injection, schedule: Q01DX001 (ip), vehicle: other) was 124 % of control, the T/C [1] was 161 % of control and the T/C (dose: 25.0 mg/kg/injection, schedule: Q01DX001 (ip), vehicle: other) was 200 % of control. For the same molecule, the T/C [2] was 238 % of control, the T/C (dose: 25.0 mg/kg/injection, schedule: Q01DX001 (ip), vehicle: saline) was 202 % of control and the T/C (dose: 50.0 mg/kg/injection, schedule: Q01DX001 (ip), vehicle: saline) was 215 % of control.
For `CCN(CC)CCNc1cc(C)nc2c1ccc1c2ccc2c(NCCN(CC)CC)cc(C)nc21`, the T/C (dose: 12.5 mg/kg/injection, schedule: Q01DX009 (ip), vehicle: water) was 104 % of control, the T/C (dose: 25.0 mg/kg/injection, schedule: Q01DX009 (ip), vehicle: water) was 113 % of control and the T/C (dose: 50.0 mg/kg/injection, schedule: Q01DX009 (ip), vehicle: water) was 97 % of control.
`c1ccc(-c2nc3ccccc3n2CCc2ccncc2)nc1` was tested, and the T/C [14] was 107 % of control and the T/C [15] was 104 % of control.
In the case of `COC(=O)C(=O)C1CCc2c(C(=O)OC)nc3[nH]n(-c4ccccc4)c(=O)c3c21` (stereo not drawn), the T/C [11] is reported as 111 % of control, the T/C [12] is reported as 94 % of control and the T/C [13] is reported as 88 % of control.
With `CN1C(=O)c2ccc3c4ccc5c6c(ccc(c7ccc(c2c37)C1=O)c64)C(=O)OC5=O` the T/C [14] was 101 % of control, the T/C [15] was 101 % of control and the T/C [16] was 103 % of control.
`O=C1CC(O)(c2ccccc2)CS1` (stereo not drawn) was tested, and the T/C (dose: 100.0 mg/kg/injection, schedule: Q04DX003 (ip), vehicle: Klucel (hydroxypropylcellulose) (HPC)) was 107 % of control, the T/C (dose: 200.0 mg/kg/injection, schedule: Q04DX003 (ip), vehicle: Klucel (hydroxypropylcellulose) (HPC)) was 105 % of control and the T/C (dose: 400.0 mg/kg/injection, schedule: Q04DX003 (ip), vehicle: Klucel (hydroxypropylcellulose) (HPC)) was 100 % of control.
With `CP1(=S)C=C(NC2CCCCC2)CC1` (stereo not drawn) the T/C [7] was 99 % of control, the T/C [8] was 107 % of control and the T/C [9] was 110 % of control. For the same molecule, the T/C [10] was 92 % of control and the T/C (dose: 200.0 mg/kg/injection, schedule: Q01DX009 (ip), vehicle: Klucel (hydroxypropylcellulose) (HPC)) was 95 % of control.
For `O=C1c2ccccc2C(=O)N1CBr`, the T/C [3] was 109 % of control, the T/C [4] was 104 % of control and the T/C [5] was 100 % of control.

— PubChem BioAssay AID330 (DTP/NCI, 2004)
